From patent US20240201204A1, “Biomarker and Druggable Target of Neurodegeneration” (University Hospitals Cleveland Medical Center, priority 2020, published 2024)

Columns and labels:
[1] = patients with pediatric and adolescent congenital muscular dystrophy; cited from earlier work
C57BL/6J mice = experiment: Foot slip test of motor function after TBI; type: in vivo, mouse; settings: low-dose salsalate daily IP from 24 h after TBI, vs. TBI+Vehicle
Method: Drug preparation and administration: CGP3466B (Sigma-Aldrich, SML1941) was dissolved in DMSO and then diluted in sterile saline. The final working stock was 0.0014 mg/ml for administering the 0.014 mg/kg dose. Intraperitoneal administration of CGP3466B was initiated 15 min or 24 h after injury, and tissues were harvested 6 h (for SNO-GAPDH, SNO-SIRT1 measurement) or 2 weeks (for ac-tau measurement) later, respectively. Salsalate (AdipoGen, AG-CR1-3574) was dissolved in DMSO and then diluted in sterile PBS. The final working stocks were as follows: 2.5 mg/ml (25 mg/kg dose), 1 mg/ml (10 mg/kg dose), 0.5 mg/ml (5 mg/kg dose). Daily intraperitoneal administration of salsalate was initiated 24 hr after injury and continued throughout behavioral testing. P7C3-A20 and FK866 (Sigma-Aldrich, F8557) were first dissolved in 1 vol of DMSO, followed by addition of 4 vol of Kolliphor and vigorously vortexing. The solution was then diluted with 30 vol of filtered 5% dextrose (pH 7.0). EX527 (Selleckchem, S1541) was dissolved in 1% DMSO+30% polyethylene glycol+1% Tween 80. Daily intraperitoneal administration of P7C3-A20 was initiated 24 hr after poly-traumatic brain injury. […]
Foot slip test of motor function: Mice were trained to cross an 80 cm-long beam over two days and then tested on day 16. Video of the mice was recorded and analyzed by observers blind to treatment group.

clinically-diagnosed TBI = experiment: Pharmacoepidemiologic cohort analysis (MarketScan Medicare Supplemental database), incidence of TBI; type: in vivo, human; settings: vs. PS-matched aspirin cohort, Cox regression model, 6 years of follow-up
Description: (§1) Because ac-tau has been generally reported in the brains of subjects with AD, we evaluated the relationship between salsalate or diflunisal use and incidence of clinically-diagnosed TBI or AD by analyzing 7.23 million U.S. commercially-insured individuals (MarketScan Medicare Supplemental database). We conducted two cohort analyses to evaluate the predicted association, based on individual level of longitudinal patient data and pharmacoepidemiologic methods, as previously established (Cheng et al., 2018). Thus, our two cohorts included: (1) salsalate vs. a matched aspirin population and (2) diflunisal vs. a matched aspirin population (Table 2). For each comparison, we estimated the un-stratified Kaplan-Meier curves and conducted propensity score (PS) stratified (n strata=10) log-rank tests and a Cox regression model after adjusting age, race, sex, and disease comorbidities (including diabetes, hypertension, and coronary artery disease) using a propensity score-matching method (Methods).
Study cohorts. The IBM® MarketScan® Medicare Supplemental Database is one of the first in the U.S. to profile the healthcare experience of retirees with Medicare supplemental insurance paid by employers. The MarketScan Medicare Supplemental Database provides detailed cost, use and outcomes data for healthcare services performed in both inpatient and outpatient settings. […]

Alzheimer's disease = experiment: Pharmacoepidemiologic cohort analysis (MarketScan Medicare Supplemental database), incidence of AD; type: in vivo, human
Description: as §1
Study cohorts. The IBM® MarketScan® Medicare Supplemental Database is one of the first in the U.S. to profile the healthcare experience of retirees with Medicare supplemental insurance paid by employers. The MarketScan Medicare Supplemental Database provides detailed cost, use and outcomes data for healthcare services performed in both inpatient and outpatient settings. For most of the population, the medical claims are linked to outpatient prescription drug claims and person-level enrollment data through the use of unique patient or enrollee identifiers. […] This feature makes the database a robust tool for pharmacoeconomic and outcomes research and helps provide insight into the drug use and spending patterns of older Americans. In this study, the pharmacoepidemiology study utilized the MarketScan Medicare Claims database from 2012 to 2017. The dataset included individual-level diagnosis codes, procedure codes and pharmacy claim data for 7.23 million patients. Pharmacy prescriptions of salsalate, diflunisal, and aspirin were identified by using RxNorm and National Drug Code (NDC).
Outcome measurement. For a subject, a drug episode is defined as from drug initiation to drug discontinuation. Specifically, drug initiation is defined as the first day of drug supply (i.e. 1st prescription date). Drug discontinuation is defined as the last day of drug supply (i.e. last prescription date+days of supply) and without drug supply for the next 60 days. In another word, gaps of less than 60-day of drug supply were allowed within a drug episode. The drug cohort included the first drug episode for each subject. For the final cohorts, demographic variables including age, race, sex and geographical location were collected. […]

p300/CBP = settings: literature (Shirakawa et al., 2016); cited from earlier work

SMILES | safety in Phase 1 clinical trial [1] | post-TBI motor impairment (foot slip assay) (C57BL/6J mice) | hazard ratio [HR], clinically-diagnosed TBI (clinically-diagnosed TBI) | incidence of AD, subgroup analysis (Alzheimer's disease; excluding patients with type 2 diabetes, hypertension, or coronary artery disease, vs. aspirin) | hazard ratio [HR], AD (Alzheimer's disease; vs. PS-matched aspirin cohort, Cox regression model, 6 years of follow-up) | inhibition of p300/CBP (p300/CBP)
C#CCN(C)CC1=Cc2ccccc2Oc2ccccc21.O=C(O)/C=C\C(=O)O [CGP3466B] | shown safety | – | – | – | – | –
O=C(Oc1ccccc1C(=O)O)c1ccccc1O [salsalate] | – | protects mice from post-TBI impairments | 0.70 | associated with decreased incidence of AD | 0.57 | known inhibitor of rodent and human p300/CBP
